In US8148534B2, “Inhibitors of 11-beta-hydroxysteroid dehydrogenase 1” (Eli Lilly and Company, priority 2006, dated 2012):

Key:
[1] = molecular target: recombinant human 11β-HSD type 1 enzyme (Homo sapiens, UniProt P28845); test: 11-β-HSD Type 1 Enzyme Assay (NADPH fluorescence); format: biochemical; details: three hour incubation at room temperature, read-out: Human 11-βHSD1 IC50
Protocol: 11-β-HSD Type 1 Enzyme Assay
Human 11-β-HSD type 1 activity is measured by assaying NADPH production by fluorescence assay. Solid compounds are dissolved in DMSO to a concentration of 10 mM. Twenty microliters of each are then transferred to a column of a 96-well polypropylene Nunc plate where they are further diluted 50-fold followed by subsequent two-fold titration, ten times across the plate with additional DMSO using a Tecan Genesis 200 automated system. Plates are then transferred to a Tecan Freedom 200 system with an attached Tecan Temo 96-well head and an Ultra 384 plate reader. Reagents are supplied in 96-well polypropylene Nunc plates and are dispensed individually into black 96-well Molecular Devices High Efficiency assay plates (40 μL/well capacity) in the following fashion: 9 μL/well of substrate (2.22 mM NADP, 55.5 μM Cortisol, 10 mM Tris, 0.25% Prionex, 0.1% Triton X100), 3 μL/well of water to compound wells or 3 μL to control and standard wells, 6 μL/well recombinant human 11β-HSD type 1 enzyme, 2 μL/well of compound dilutions. […] Plates are then shaken once more for 15 seconds then placed into an Ultra 384 microplate reader (355EX/460EM) for detection of NADPH fluorescence.

[2] = molecular target: T1, 11β-HSD1 in primary human aortic smooth muscle cells (AoSMC) (Homo sapiens, UniProt P28845); test: Human Aortic Smooth Muscle Cell Assay (cortisone to cortisol conversion); format: cell-based; details: hTNFα induced, cortisol by time resolved immunoassay
T1 construct: containing 12 ng/mL hTNFα to induce expression of 11β-HSD1; endogenous in cells; host or cells: primary human aortic smooth muscle cells (AoSMC), induced with hTNFα
Protocol: Human Aortic Smooth Muscle Cell Assay
Primary human aortic smooth muscle cells (AoSMC) are cultured in 5% FBS growth medium to a passage number of 6, then pelleted by centrifugation and resuspended at a density of 9×10^4 cells/mL in 0.5% FBS assay medium containing 12 ng/mL hTNFα to induce expression of 11β-HSD1. Cells are seeded into 96-well tissue culture assay plates at 100 μL/well (9×10^3 cells/well) and incubated for 48 hours at 37° C., 5% CO2. Following induction, cells are incubated for 4 hours at 37° C., 5% CO2 in assay medium containing test compounds then treated with 10 μL/well of 10 μM cortisone solubilized in assay medium, and incubated for 16 hours at 37° C., 5% CO2. Medium from each well is transferred to a plate for subsequent analysis of cortisol using a competitive fluorescence resonance time resolved immunoassay. […] Higher levels of free cortisol result in diminishing energy transfer from the Europium-IgG to the APC-cortisol complex resulting in less APC fluorescence. Fluorescent intensities for Europium and APC are measured using a LJL Analyst AD. Europium and APC […] is measured using 360 nm excitation and 615 nm and 650 nm emission filters respectively. […] Fluorescent intensities measured for APC are modified by dividing by the Eu fluorescence (APC/Eu). […]

[3] = test system: cortisone to cortisol conversion in male C57BL/6 mice; test: Acute In Vivo Cortisone Conversion Assay; details: oral dose of 10 mg/kg, cortisone challenge 30 mg/kg s.c. after 16 hours, serum cortisol
Protocol: Acute In Vivo Cortisone Conversion Assay
In general, compounds are dosed orally into mice, the mice are challenged with a subcutaneous injection of cortisone at a set timepoint after compound injection, and the blood of each animal is collected some time later. Separated serum is then isolated and analyzed for levels of cortisone and cortisol by LC-MS/MS, followed by calculation of mean cortisol and percent inhibition of each dosing group. Specifically, male C57BL/6 mice are obtained from Harlan Sprague Dawley at average weight of 25 grams. Exact weights are taken upon arrival and the mice randomized into groups of similar weights. Compounds are prepared in 1% w-w HEC, 0.25% w-w polysorbate 80, 0.05% w-w Dow Corning antifoam #1510-US at various doses based on assumed average weight of 25 grams. Compounds are dosed orally, 200 μl per animal, followed by a subcutaneous dose, 200 μl per animal, of 30 mg/kg cortisone at 1 to 24 hours post compound dose. At 10 minutes post cortisone challenge, each animal is euthanized for 1 minute in a CO2 chamber, followed by blood collection via cardiac puncture into serum separator tubes. Once fully clotted, tubes are spun at 2500×g, 4° C. for 15 minutes, the serum transferred to wells of 96-well plates (Corning Inc, Costar #4410, cluster tubes, 1.2 ml, polypropylene), and the plates are frozen at −20° C. until analysis by LC-MS/MS. […]

T1 sequence (P28845 whole entry): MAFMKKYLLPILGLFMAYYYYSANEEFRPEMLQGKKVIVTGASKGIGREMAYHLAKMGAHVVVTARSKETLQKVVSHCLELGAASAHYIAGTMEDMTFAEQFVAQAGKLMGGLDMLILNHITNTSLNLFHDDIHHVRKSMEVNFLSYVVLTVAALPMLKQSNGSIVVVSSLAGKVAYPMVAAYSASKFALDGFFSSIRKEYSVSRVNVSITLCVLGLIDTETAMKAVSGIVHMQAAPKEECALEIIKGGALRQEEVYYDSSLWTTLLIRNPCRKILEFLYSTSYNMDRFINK
Chain of recombinant human 11β-HSD type 1 enzyme (P28845 whole entry): as above

Row | Structure (SMILES) | IC50 [1] | IC50 [2] | % Inhibition after 16 hours (dose of 10 (mg/kg)) [3]
1 | O=C(c1ccc(-c2cc(Cl)c(C[C@@H]3CCN(N4CCCCC4)C3=O)c(Cl)c2)cc1)N1CCC(O)CC1 [Example 2, (R)-3-[3,5-Dichloro-4′-(4-hydroxy-piperidine-1-carbonyl)-biphenyl-4-ylmethyl]-1-piperidin-1-yl-pyrrolidin-2-one] | 357 nM | 10.4 nM | –
2 | O=C(c1ccc(-c2cc(Cl)c(C[C@@H]3CCN(N4CCCCC4)C3=O)c(Cl)c2)cc1)N1CCC(C(F)(F)F)CC1 [Example 1, (R)-3-[3,5-Dichloro-4′-(4-trifluoromethyl-piperidine-1-carbonyl)-biphenyl-4-ylmethyl]-1-piperidin-1-yl-pyrrolidin-2-one] | – | 16.8 nM | 78%
